ChEMBL document CHEMBL1127149, “The squalestatins: potent inhibitors of squalene synthase. The role of the tricarboxylic acid moiety” (Bioorg Med Chem Lett, 1993)

Key:
Squalene synthase = biological target: T1, Squalene synthase (Rattus norvegicus, UniProt Q02769); assay: In vitro inhibitory activity measured against rat squalene synthase(SQS) enzyme
T1 sequence (Q02769 whole entry): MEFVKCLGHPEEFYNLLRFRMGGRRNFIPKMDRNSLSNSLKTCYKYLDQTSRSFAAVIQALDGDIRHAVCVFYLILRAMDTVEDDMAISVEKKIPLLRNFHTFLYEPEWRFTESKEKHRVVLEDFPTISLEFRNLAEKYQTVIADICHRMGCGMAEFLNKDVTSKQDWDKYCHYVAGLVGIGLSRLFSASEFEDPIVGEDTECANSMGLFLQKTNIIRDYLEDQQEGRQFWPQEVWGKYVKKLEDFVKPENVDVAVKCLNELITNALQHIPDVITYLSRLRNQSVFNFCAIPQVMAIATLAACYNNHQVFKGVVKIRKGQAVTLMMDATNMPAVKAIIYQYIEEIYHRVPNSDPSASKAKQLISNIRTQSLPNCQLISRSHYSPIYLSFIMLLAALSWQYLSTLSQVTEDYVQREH

Rattus norvegicus = species on record: Rattus norvegicus; assay: Inhibitory activity of compound was measured against cholesterol biosynthesis from [14C]- acetate by isolated rat hepatocytes; assay type: functional; conditions: Hepatocyte

Structure (SMILES) | IC50 (Squalene synthase) | IC50 (Rattus norvegicus)
C=C(CC[C@]12O[C@H](C(=O)O)[C@@](O)(C(=O)OC)[C@](C(=O)O)(O1)[C@H](O)[C@H]2O)[C@@H](OC(C)=O)[C@H](C)Cc1ccccc1 | 355 nM | –
C=C(CC[C@]12O[C@H](C(=O)OC)[C@@](O)(C(=O)O)[C@](C(=O)O)(O1)[C@H](O)[C@H]2O)[C@@H](OC(C)=O)[C@H](C)Cc1ccccc1 | 220 nM | –
C=C(CC[C@]12O[C@H](C(=O)OC)[C@@](O)(C(=O)O)[C@](C(=O)OC)(O1)[C@H](OC(=O)/C=C/[C@@H](C)C[C@@H](C)CC)[C@H]2O)[C@@H](OC(C)=O)[C@H](C)Cc1ccccc1 | > 500 nM | –
C=C(CC[C@]12O[C@H](C(=O)OC)[C@@](O)(C(=O)OC)[C@](C(=O)O)(O1)[C@H](OC(=O)/C=C/[C@@H](C)C[C@@H](C)CC)[C@H]2O)[C@@H](OC(C)=O)[C@H](C)Cc1ccccc1 | 134 nM | –
C=C(CC[C@]12O[C@H](C(=O)OC)[C@@](O)(C(=O)OC)[C@](C(=O)OC)(O1)[C@H](OC(=O)/C=C/[C@@H](C)C[C@@H](C)CC)[C@H]2O)[C@@H](OC(C)=O)[C@H](C)Cc1ccccc1 | > 500 nM | –
C=C(CC[C@]12O[C@H](C(=O)O)[C@@](O)(C(=O)O)[C@](C(=O)OC)(O1)[C@H](OC(=O)/C=C/[C@@H](C)C[C@@H](C)CC)[C@H]2O)[C@@H](OC(C)=O)[C@H](C)Cc1ccccc1 | > 500 nM | –
C=C(CC[C@]12O[C@H](C(=O)O)[C@@](O)(C(=O)OC)[C@](C(=O)OC)(O1)[C@H](OC(=O)/C=C/[C@@H](C)C[C@@H](C)CC)[C@H]2O)[C@@H](OC(C)=O)[C@H](C)Cc1ccccc1 | > 500 nM | –
C=C(CC[C@]12O[C@H](C(=O)O)[C@@](O)(C(=O)O)[C@](C(=O)O)(O1)[C@H](OC(=O)/C=C/[C@@H](C)C[C@@H](C)CC)[C@H]2O)[C@@H](OC(C)=O)[C@H](C)Cc1ccccc1 [ZARAGOZIC ACIDS A] | – | 39 nM
C=C(CC[C@]12O[C@H](C(=O)O)[C@@](O)(C(=O)O)[C@](C(=O)OC)(O1)[C@H](O)[C@H]2O)[C@@H](OC(C)=O)[C@H](C)Cc1ccccc1 | > 500 nM | –
